Test: xn = mol fraction of the nth substance listed

ClC=C(Cl)Cl + CCCCOCCOCCO
298.15 K, 101.33 kPa
Settings	viscosity [mPa·s]
x1 = 0.0171	5.12
x2 = 0.0067	0.539
x2 = 0.0185	0.56
x2 = 0.0282	0.577
x2 = 0.0462	0.609
x2 = 0.0623	0.643
x2 = 0.0798	0.68
x2 = 0.0916	0.708
x2 = 0.1239	0.784
x2 = 0.1624	0.89
x2 = 0.2002	0.999
x2 = 0.231	1.097
x2 = 0.268	1.224
x2 = 0.2998	1.339
x2 = 0.3306	1.46
x2 = 0.3622	1.598
x2 = 0.4019	1.789
x2 = 0.4263	1.914
x2 = 0.4614	2.087
x2 = 0.5031	2.305
x2 = 0.54	2.492
x2 = 0.6007	2.81
x2 = 0.6745	3.232
x2 = 0.7406	3.618
x2 = 0.7898	3.928
x2 = 0.8221	4.116
x2 = 0.8567	4.332
x2 = 0.8875	4.525
x2 = 0.9174	4.722
x2 = 0.9489	4.919
x2 = 0.9678	5.031

CCCCC(=O)[O-].CC[NH+](CC)CCO + CCCCn1cc[n+](C)c1.COP(=O)([O-])OC
Settings	viscosity [mPa·s]
298.15 K, 101 kPa, x1 = 0.1018	415.5

CCCCn1cc[n+](C)c1.COP(=O)([O-])OC + CCCCn1cc[n+](C)c1.O=S(=O)([N-]S(=O)(=O)C(F)(F)F)C(F)(F)F
Settings	viscosity [mPa·s]
298.15 K, 100 kPa, x2 = 0.25	432.5

CC(O)CO (configuration not stated) + CCCO
313 K, 101 kPa
Settings	viscosity [mPa·s]
x1 = 0.1	1.9
x1 = 0.3	2.9
x1 = 0.5	4.8
x1 = 0.7	8.3
x1 = 0.9	15

ClC=C(Cl)Cl + CCCO
viscosity [mPa·s]
Settings	x1 = 0.0848	x1 = 0.1725	x2 = 0.024	x2 = 0.1062	x2 = 0.253	x2 = 0.3927	x2 = 0.5454	x2 = 0.6998	x2 = 0.9543
298.15 K, 101.3 kPa	1.705	1.485	–	–	–	–	–	–	–
303.15 K, 101 kPa	–	–	0.598	0.692	0.86	1.019	1.193	1.37	1.537
313.15 K, 101 kPa	–	–	0.55	0.617	0.735	0.848	0.97	1.095	1.219
323.15 K, 101 kPa	–	–	0.487	0.539	0.634	0.722	0.82	0.919	1.018

NC1CCCCC1 + CCCO
viscosity [mPa·s], 101 kPa
Settings	293.15 K	298.15 K	303.15 K
x1 = 0.0549	2.253	2.004	1.773
x1 = 0.102	2.29	2.036	1.803
x1 = 0.1983	2.392	2.12	1.871
x1 = 0.3117	2.512	2.213	1.946
x1 = 0.3529	2.548	2.241	1.968
x1 = 0.4031	2.578	2.266	1.985
x1 = 0.4387	2.588	2.274	1.996
x1 = 0.4926	2.589	2.271	1.999
x1 = 0.5491	2.568	2.261	1.992
x1 = 0.6111	2.534	2.229	1.964
x1 = 0.6604	2.485	2.19	1.928
x1 = 0.704	2.454	2.168	1.91
x1 = 0.7984	2.349	2.078	1.837
x1 = 0.8844	2.241	1.991	1.766
x1 = 0.9389	2.197	1.955	1.735

O=C1CCCC1 + CCCO
303.15 K, 101 kPa
Settings	viscosity [mPa·s]
x1 = 0.1001	1.333
x1 = 0.2566	1.091
x1 = 0.4203	0.974
x1 = 0.5821	0.922
x1 = 0.7382	0.915
x1 = 0.8967	0.935

CC(C)Br + CCO
viscosity [mPa·s], 101 kPa
Settings	x1 = 0.1	x1 = 0.2	x1 = 0.3	x1 = 0.4	x1 = 0.5	x1 = 0.6	x1 = 0.7	x1 = 0.8	x1 = 0.9
298.15 K	0.9584	0.8399	0.7419	0.6681	0.601	0.546	0.505	0.4811	0.4782
303.15 K	0.8856	0.7784	0.6899	0.6233	0.5616	0.5172	0.4819	0.4653	0.4647
308.15 K	0.8081	0.711	0.6407	0.5773	0.5251	0.4875	0.4624	0.4474	0.4513
313.15 K	0.7913	0.7008	0.6327	0.5668	0.5161	0.4739	0.4489	0.4352	0.4285
318.15 K	0.7206	0.644	0.5803	0.5262	0.4829	0.4499	0.4268	0.4152	0.4137

CC(O)CO (configuration not stated) + CCO
Settings	viscosity [mPa·s]
298.15 K, 101 kPa, x1 = 0.1	1.55
298.15 K, 101 kPa, x1 = 0.2	2.215
298.15 K, 101 kPa, x1 = 0.3	3.185
298.15 K, 101 kPa, x1 = 0.4	4.612
298.15 K, 101 kPa, x1 = 0.5	6.698
298.15 K, 101 kPa, x1 = 0.6	9.706
298.15 K, 101 kPa, x1 = 0.7	14.06
298.15 K, 101 kPa, x1 = 0.8	20.27
298.15 K, 101 kPa, x1 = 0.9	30.07
303 K, 100 kPa, x1 = 0.6	6.734
308 K, 100 kPa, x1 = 0.6	5.729
308.15 K, 101 kPa, x1 = 0.1	1.24
308.15 K, 101 kPa, x1 = 0.2	1.719
308.15 K, 101 kPa, x1 = 0.3	2.409
308.15 K, 101 kPa, x1 = 0.4	3.377
308.15 K, 101 kPa, x1 = 0.5	4.699
308.15 K, 101 kPa, x1 = 0.6	6.604
308.15 K, 101 kPa, x1 = 0.7	9.261
308.15 K, 101 kPa, x1 = 0.8	12.96
308.15 K, 101 kPa, x1 = 0.9	18.15
313 K, 100 kPa, x1 = 0.6	5.069
318 K, 100 kPa, x1 = 0.6	4.427
318.15 K, 101 kPa, x1 = 0.1	0.9282
318.15 K, 101 kPa, x1 = 0.2	1.317
318.15 K, 101 kPa, x1 = 0.3	1.854
318.15 K, 101 kPa, x1 = 0.4	2.576
318.15 K, 101 kPa, x1 = 0.5	3.527
318.15 K, 101 kPa, x1 = 0.6	4.797
318.15 K, 101 kPa, x1 = 0.7	6.46
318.15 K, 101 kPa, x1 = 0.8	8.621
318.15 K, 101 kPa, x1 = 0.9	11.43

ClC=C(Cl)Cl + CCO
viscosity [mPa·s], 101.33 kPa
Settings	x2 = 0.15	x2 = 0.3	x2 = 0.45	x2 = 0.6	x2 = 0.75	x2 = 0.9
293.15 K	0.6368	0.7027	0.7685	0.8344	0.9003	0.9601
303.15 K	0.59	0.6477	0.7071	0.765	0.8177	0.8581
313.15 K	0.521	0.569	0.6186	0.6692	0.7193	0.7593

O=C1CCCC1 + CCOC(=O)OCC
viscosity [mPa·s], 101 kPa
Settings	x2 = 0.0876	x2 = 0.1356	x2 = 0.2458	x2 = 0.3359	x2 = 0.4228	x2 = 0.5415	x2 = 0.6475	x2 = 0.7513	x2 = 0.8664	x2 = 0.9352
303.15 K	0.958	0.937	0.891	0.859	0.83	0.797	0.77	0.747	0.725	0.713
308.15 K	0.893	0.873	0.833	0.803	0.776	0.745	0.722	0.701	0.681	0.668
313.15 K	0.835	0.819	0.783	0.757	0.733	0.705	0.683	0.664	0.644	0.632

CC(CCO)CC(C)(C)C (configuration not stated) + CCOC(C)=O
viscosity [mPa·s], 101.33 kPa
Settings	x2 = 0.1539	x2 = 0.2904	x2 = 0.4122	x2 = 0.5219	x2 = 0.6208	x2 = 0.7106	x2 = 0.7925	x2 = 0.8677	x2 = 0.9364
298.15 K	5.471	3.367	2.072	1.443	1.075	0.879	0.672	0.514	0.486
303.15 K	4.696	2.968	1.837	1.305	0.975	0.789	0.631	0.526	0.475
308.15 K	4.016	2.452	1.646	1.181	0.934	0.724	0.586	0.495	0.439

CC(O)CO (configuration not stated) + CCOC(C)=O
viscosity [mPa·s], 101.3 kPa
Settings	x2 = 0.0929	x2 = 0.1906	x2 = 0.2984	x2 = 0.4082	x2 = 0.5085	x2 = 0.6062	x2 = 0.7032	x2 = 0.7968	x2 = 0.8998
298.15 K	20.11	10.09	5.084	2.919	1.869	1.238	0.8932	0.6933	0.5327
303.15 K	15.92	8.28	4.306	2.516	1.663	1.115	0.8175	0.6419	0.5008
308.15 K	12.64	6.743	3.661	2.193	1.47	1.011	0.7525	0.5957	0.4714
313.15 K	10.17	5.587	3.146	1.924	1.313	0.9178	0.6971	0.5565	0.4442
318.15 K	8.35	4.705	2.729	1.705	1.177	0.8394	0.6418	0.5191	0.4197
323.15 K	6.893	4.021	2.377	1.514	1.072	0.7691	0.5964	0.4882	0.3962
